*1 amine or outer side, *2 acyl side, *3 side chain or, on linkers, in order; H or OH if unused. Where a SMILES comes first, the peptide text is derived from it. Side-chain parts run from the residue outwards. [ ]: non-standard residue; d: D form. The star is where a group is joined. X1 = CCCCCCCCCCCCCCCCCC(=O)N[C@@H](CCC(=O)N[C@@H](CCC(=O)N[C@@H](CCC(=O)NCCCC[C@H](NC(=O)COCC(=O)NCCCOCCOCCOCCCNC(=O)COCC(=O)NCCCOCCOCCOCCCN*)C(N)=O)C(=O)O)C(=O)O)C(=O)O; γGlu = O=C(O)[C@H](CCC(=O)[*:2])N[*:1]; Stearoyl = CCCCCCCCCCCCCCCCCC(=O)*; Palmitoyl = CCCCCCCCCCCCCCCC(=O)*; Nle = CCCC[C@H](N)C(=O)O; AEEA = NCCOCCOCC(=O)O; Aib = CC(C)(N)C(=O)O
Experiments:
[1] = molecular target: T1, RXFP1 (Homo sapiens, UniProt Q9HBX9); assay: OVCAR5 cAMP assay (HTRF), RXFP1 agonist activity; format: cell-based; conditions: for EC50: OVCAR5 cells, cAMP HTRF, read-out: EC50 (nM), OVCAR 5 cells (cAMP); for Emax: OVCAR-5, maximal cAMP relative to H2-relaxin maximum (100%), read-out: EMax, OVCAR 5 cells (cAMP)
T1 construct: OVCAR5 cells expressing endogenous RXFP1; endogenous in cells; host or cells: OVCAR5 cells
T1 sequence (Q9HBX9 1-757): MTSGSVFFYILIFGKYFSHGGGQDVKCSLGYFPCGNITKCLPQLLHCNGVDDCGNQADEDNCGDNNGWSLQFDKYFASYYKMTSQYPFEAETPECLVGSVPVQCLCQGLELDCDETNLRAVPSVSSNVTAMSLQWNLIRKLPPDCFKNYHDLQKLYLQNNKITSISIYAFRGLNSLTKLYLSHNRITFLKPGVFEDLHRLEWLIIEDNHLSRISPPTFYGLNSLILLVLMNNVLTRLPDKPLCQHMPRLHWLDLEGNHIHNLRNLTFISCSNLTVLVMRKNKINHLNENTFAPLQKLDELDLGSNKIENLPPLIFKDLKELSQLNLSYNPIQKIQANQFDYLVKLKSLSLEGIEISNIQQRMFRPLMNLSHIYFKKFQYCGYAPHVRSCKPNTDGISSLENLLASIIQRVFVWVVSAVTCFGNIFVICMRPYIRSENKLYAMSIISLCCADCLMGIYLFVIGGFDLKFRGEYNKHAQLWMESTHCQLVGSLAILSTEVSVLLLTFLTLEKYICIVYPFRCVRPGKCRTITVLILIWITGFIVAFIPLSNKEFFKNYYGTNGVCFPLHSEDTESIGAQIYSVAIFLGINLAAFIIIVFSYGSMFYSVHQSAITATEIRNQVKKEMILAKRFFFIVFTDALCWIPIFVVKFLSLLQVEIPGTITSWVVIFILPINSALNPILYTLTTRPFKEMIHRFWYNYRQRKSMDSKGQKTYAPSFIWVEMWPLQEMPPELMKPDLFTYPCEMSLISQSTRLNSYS
In short: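 OVCAR5 cells (endogenous RXFP1) pretreated 40 min at 37° C with 1 mM IBMX, then exposed to peptides in serum-free medium for 30 min at 37° C. Lysate cAMP read by HTRF; EC50 from variable-slope sigmoidal fit; Emax as % of H2-relaxin maximal cAMP in same run.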

[2] = Stability testing of peptides in human plasma or blood; format: in vitro ADME; conditions: 37° C.; for Human Plasma stability % remaining T = 0: human plasma or blood, T = 0 (reference), 5 μM
Procedure: (§1) Prior to the testing of stability in plasma (or blood) of a peptide batch, its purity (HPLC-UV) was determined.
(§2) Rat and Human plasma: anti-coagulant sodium or lithium heparin.
(§3) Rat and Human blood: anti-coagulant sodium or lithium heparin. • Stock solution: • 100 μM solution of study compound in 50 mM Phosphate buffer pH 7.4. • 950 μL plasma (or blood) was pre-incubated for 5 min at 37° C. 50 μL of compound stock solution was added. Final compound concentration=5 μM. Vortex and transfer 1504, plasma (or blood) into an Eppendorf for each time point. The time points […] were carried out in duplicate for each species.
(§4) After incubation 150 μL, plasma (or blood) was extracted with 600 μL, Acetonitrile containing with 1% TFA. Then, vortexed and centrifuged 10 min at 14600 rpm. 200 μL supernatant was dried under N2. The sample was reconstituted in 200 μL of H2O/CH3CN 98/2+0.1% FA+50 ng/ml Labetalol and analyzed using the analytical system used in solubility and stability studies.
(§5) For determination of the amount of the remaining peptide, the peak areas of the target compound at t0 and each time point […] were compared, resulting in “% remaining peptide”, following the equation: % remaining peptide=[(peak area peptide time)×100]/peak area peptide t0. The stability is expressed as “% remaining peptide”.

[3] = Stability testing of peptides in rat plasma or blood; format: in vitro ADME; conditions: 37° C.; for Rat plasma stability % remaining T = 0: rat plasma or blood, T = 0 (reference), 5 μM
Procedure: as §1, §2, §3, §4, §5

[4] = Pharmacokinetic (PK) determination after i.v. or s.c. administration to rats; format: in vivo, Sprague Dawley rats; conditions: Sprague Dawley, Rat PK; for C0 / half-life: iv, 1 mg/kg i.v.; for C0: extrapolated plasma concentration at t=0, read-out: C0; for half-life / Cmax / Tmax / bioavailability: plasma; for half-life: read-out: T½ (converted); for Cmax / Tmax: sc, 3 mg/kg s.c.; for bioavailability: subcutaneous, 3 mg/kg s.c. vs 1 mg/kg i.v., dose-corrected AUC ratio
In short: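 Sprague Dawley rats received peptide in PBS at 1 mg/kg i.v. or 3 mg/kg s.c., dose corrected for salts, solvent and purity. Plasma analysed by LC/MS after protein precipitation; non-compartmental PK, BLQ values set to zero, F% as dose-corrected s.c./i.v. AUC ratio.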

[5] = whole blood, rat blood, read-out: Rat stability in blood % remaining 1 h
[6] = whole blood, rat blood, read-out: Rat stability in blood % remaining 4 h
[7] = human plasma, read-out: Human Plasma stability % remaining 1 h
[8] = human plasma, read-out: Human Plasma stability % remaining 4 h
[9] = rat plasma, read-out: Rat plasma stability % remaining 1 h
[10] = rat plasma, read-out: Rat plasma stability % remaining 4 h

Compound | EC50 [1] | Emax [1] | Human Plasma stability % remaining T = 0 [2] | remaining at 1 h, 5 µM ([2]; whole blood, human blood, read-out: Human stability in blood % remaining 1 h) | remaining at 4 h, 5 µM ([2]; whole blood, human blood, read-out: Human stability in blood % remaining 4 h) | Rat plasma stability % remaining T = 0 [3] | remaining at 1 h, 5 µM [3, 5] | remaining at 4 h, 5 µM [3, 6] | C0 [4] | half-life [4] | Cmax [4] | Tmax [4] | bioavailability [4] | remaining at 1 h, 5 µM [2, 7] | remaining at 4 h, 5 µM [2, 8] | remaining at 1 h, 5 µM [3, 9] | remaining at 4 h, 5 µM [3, 10]
CCCCCCCCCCCCCCCC(=O)N[C@@H](CCC(=O)N[C@@H](CCC(=O)N[C@@H](CCC(=O)NCCCC[C@H](NC(=O)[C@H](CCCCN)NC(=O)[C@H](CCCNC(=N)N)NC(=O)C(C)(C)NC(=O)[C@H](CO)NC(=O)[C@H](Cc1c[nH]c2ccccc12)NC(=O)[C@@H](NC(=O)[C@H](CO)NC(=O)[C@H](CCSC)NC(=O)CNC(=O)[C@H](CCC(=O)O)NC(=O)C(C)(C)NC(=O)C(C)(C)NC(=O)[C@@H](NC(=O)[C@H](CCC(N)=O)NC(=O)[C@H](C)NC(=O)[C@H](CCCNC(=N)N)NC(=O)[C@@H](NC(=O)[C@H](CCCCN)NC(=O)[C@H](CCC(=O)O)NC(=O)[C@H](CCCNC(=N)N)NC(=O)CNC(=O)[C@H](CCC(=O)O)NC(=O)[C@H](CC(C)C)NC(C)=O)C(C)C)[C@@H](C)CC)[C@@H](C)O)C(N)=O)C(=O)O)C(=O)O)C(=O)O [compound 7] (Ac-LEGREKVRAQI[Aib][Aib]EGMSTWS[Aib]RKK([γGlu-γGlu-γGlu-Palmitoyl])-NH2) | 17.6 nM | 87% | 100% | 110% | 91% | 100% | 110% | 93% | 4.77 µM | 4.3 h | 1.7 µM | 6 h | 53% |  |  |  | 
CCCCCCCCCCCCCCCCCC(=O)N[C@@H](CCC(=O)N[C@@H](CCC(=O)N[C@@H](CCC(=O)NCCCC[C@H](NC(=O)[C@H](CCCCN)NC(=O)[C@H](CCCNC(=N)N)NC(=O)C(C)(C)NC(=O)[C@H](CO)NC(=O)[C@H](Cc1c[nH]c2ccccc12)NC(=O)[C@@H](NC(=O)[C@H](CO)NC(=O)[C@H](CCCC)NC(=O)CNC(=O)[C@H](CCC(=O)O)NC(=O)C(C)(C)NC(=O)C(C)(C)NC(=O)[C@@H](NC(=O)[C@H](CCC(N)=O)NC(=O)[C@H](C)NC(=O)[C@H](CCCNC(=N)N)NC(=O)[C@@H](NC(=O)[C@H](CCCCN)NC(=O)[C@H](CCC(=O)O)NC(=O)[C@H](CCCNC(=N)N)NC(=O)CNC(=O)[C@H](CCC(=O)O)NC(=O)[C@H](CC(C)C)NC(C)=O)C(C)C)[C@@H](C)CC)[C@@H](C)O)C(N)=O)C(=O)O)C(=O)O)C(=O)O [compound 9] (Ac-LEGREKVRAQI[Aib][Aib]EG[Nle]STWS[Aib]RKK([γGlu-γGlu-γGlu-Stearoyl])-NH2) |  | 95% | 100% |  |  | 100% | 84% | 92% | 4.99 µM | 3 h | 2.32 µM | 6 h | 42% |  |  |  | 
CCCCCCCCCCCCCCCCCC(=O)N[C@@H](CCC(=O)N[C@@H](CCC(=O)N[C@@H](CCC(=O)NCCCC[C@H](NC(=O)COCC(=O)NCCCOCCOCCOCCCNC(=O)COCC(=O)NCCCOCCOCCOCCCNC(=O)[C@H](CCCCNC(C)=O)NC(=O)[C@H](CCCCN)NC(=O)[C@H](CCCNC(=N)N)NC(=O)C(C)(C)NC(=O)[C@H](CO)NC(=O)[C@H](Cc1c[nH]c2ccccc12)NC(=O)[C@@H](NC(=O)[C@H](CO)NC(=O)[C@H](CCCC)NC(=O)CNC(=O)[C@H](CCC(=O)O)NC(=O)C(C)(C)NC(=O)C(C)(C)NC(=O)[C@@H](NC(=O)[C@H](CCCCNC(C)=O)NC(=O)[C@H](C)NC(=O)[C@H](CCCNC(=N)N)NC(=O)[C@@H](NC(=O)[C@H](CCCCN)NC(=O)[C@H](CCC(=O)O)NC(=O)[C@H](CCCNC(=N)N)NC(=O)CNC(=O)[C@H](CCC(=O)O)NC(=O)[C@H](CC(C)C)NC(C)=O)C(C)C)[C@@H](C)CC)[C@@H](C)O)C(N)=O)C(=O)O)C(=O)O)C(=O)O [compound 19] (Ac-LEGREKVRAK(Ac)I[Aib][Aib]EG[Nle]STWS[Aib]RKK(Ac)-X1) | 0.15 nM | 96% | 100% |  |  | 100% |  |  |  |  |  |  |  | 86% | 90% | 99% | 89%
CCCCCCCCCCCCCCCC(=O)N[C@@H](CCC(=O)NCCCC[C@H](NC(=O)CC[C@H](NC(=O)CC[C@H](NC(=O)CC[C@H](NC(=O)COCCOCCNC(=O)COCCOCCNC(=O)COCCOCCNC(=O)[C@H](CCCCN)NC(=O)[C@H](CCCCN)NC(=O)[C@H](CCCNC(=N)N)NC(=O)C(C)(C)NC(=O)[C@H](CO)NC(=O)[C@H](Cc1c[nH]c2ccccc12)NC(=O)[C@@H](NC(=O)[C@H](CO)NC(=O)[C@H](CCCC)NC(=O)CNC(=O)[C@H](CCC(=O)O)NC(=O)C(C)(C)NC(=O)C(C)(C)NC(=O)[C@@H](NC(=O)[C@H](CCC(N)=O)NC(=O)[C@H](C)NC(=O)[C@H](CCCNC(=N)N)NC(=O)[C@@H](NC(=O)[C@H](CCCCN)NC(=O)[C@H](CCC(=O)O)NC(=O)[C@H](CCCNC(=N)N)NC(=O)CNC(=O)[C@H](CCC(=O)O)NC(=O)[C@H](CC(C)C)NC(C)=O)C(C)C)[C@@H](C)CC)[C@@H](C)O)C(=O)O)C(=O)O)C(=O)O)C(N)=O)C(=O)O [compound 110] (Ac-LEGREKVRAQI[Aib][Aib]EG[Nle]STWS[Aib]RKK[AEEA][AEEA][AEEA][γGlu][γGlu][γGlu]K([γGlu-Palmitoyl])-NH2) | 0.17 nM | 80% | 100% |  |  | 100% |  |  |  |  |  |  |  | 101% | 114% | 96% | 98%
